Results from US12064468B2, “Compositions and methods relating to a C-terminal peptide of troponin i with activity as a myofilament CA2+ desensitizer” (Wayne State University, priority 2019, dated 2024).
Ends that are not written are not given here.

Assays:
mAb TnI-1 [1] = assay: Western blot with mAb TnI-1 (epitope in the C-terminal end of TnI); type: binding, mouse; settings: after denaturing SDS-PAGE and blotting
Method: SDS-PAGE was performed to monitor the expression and identify the C27 peptide in intact TnI and fusion protein constructs. Briefly, 14% Laemmli SDS-PAGE with an acrylamide:bisacrylamide ratio of 29:1 was used to monitor protein expression. Protein samples were prepared by dissolving the proteins in an SDS-PAGE gel sample buffer containing 2% SDS and 3% β-mercaptoethanol. The samples were run on 0.75 mm gels at 20 mA per gel using a Bio-Rad mini-gel system. Resolved gels were stained with Coomassie Blue R-250 and de-stained using 10% acetic acid. The results were documented by imaging using a high resolution scanner.
Tris-Tricine small pore SDS-gels were utilized to […]. Briefly, 15% SDS-PAGE with acrylamide:bisacrylamide ratio of 20:1 was used to monitor the recovery of peptides. Samples were prepared as above. The gel was run using different anode and cathode buffers as described in H. Schagger et al., 166(2) (1987) 368-379; J.-P. Jin, Journal of Biological Chemistry 270(12) (1995) 6908-6916. The running conditions and documentation of results were carried out as above.
The protein bands resolved on SDS-PAGE gels were electrically transferred to nitrocellulose (NC) membranes or polyvinylidene difluoride (PVDF) membranes using a Bio-Rad semidry electrotransfer apparatus at 5 mA per cm^2. The membranes were then blocked with 1% bovine serum albumin (BSA) in Tris-buffered saline (TBS) at room temperature for 30 minutes, and incubated with mAb TnI-1 against an epitope in the C-terminal end of TnI or mAb 3C11 against the Tx3 metal affinity purification tag at 4° C. overnight. The TnI-1 mAb was raised using standard hybridoma technology in which the immunization of mouse used purified intact chicken fast TnI. […] The 3C11 mAb was generated using standard hybridoma technology in which the immunization used a Tx3 metal binding tag fusion protein. […] Washed with 0.05% Triton X-100 and 0.1% SDS in TBS, the membranes were further incubated with alkaline phosphatase-conjugated goat anti-mouse IgG secondary antibody, washed again, and developed in BCIP-NTB substrate solution. The results were documented by imaging using a high resolution scanner.

[2] = target: T1, bovine cardiac α-tropomyosin (Bos taurus, UniProt Q5KR49); assay: Competitive ELISA: peptide versus intact bovine cardiac TnI for tropomyosin binding; settings: serial dilutions of peptide in solution
T1 construct: Purified bovine cardiac α-tropomyosin was coated on 96-well plate; from tissue; host or cells: bovine cardiac muscle (inferred from 'purified bovine cardiac')
Method: Competitive tropomyosin binding experiments were performed using a derivative protocol of the microtiter plate ELISA as described in B. J. Biesiadecki et al., Journal of Biomedicine and Biotechnology, (2011) 1-8. Purified bovine cardiac α-tropomyosin was coated on 96-well plate at 5 μg/mL in Buffer A at 4° C. overnight. Washed and blocked as above, bovine cardiac TnI was added, at a predetermined concentration that produces sub-maximal binding for the immobilized tropomyo sin, to serial dilutions of HcTnI-C27 or HcTnI-C27-H peptides for incubation at room temperature for 2 hours. The competition between the cardiac TnI C-terminal peptides and intact cardiac TnI for tropomyosin binding was measured via mAb 4H6 that recognizes an epitope in intact TnI but not in the C-terminal end peptide, see S. Akhter et al., FEBS Open Bio 5 (2015) 64-75, and HRP-anti-mouse IgG secondary antibody using standard ELISA procedure as described above.

mAb TnI-1 [3] = assay: Competitive ELISA: peptide versus immobilized bovine cardiac TnI for mAb TnI-1; type: binding, mouse; settings: physiologic solution
Method: To compare the folding and conformation of chemically synthesized HcTnI-C27 and HcTnI-C27-H peptides with that of the biologically synthesized counterparts, competitive ELISA affinity titrations against mAb TnI-1 were performed. 96-well microtiter plates were coated with purified bovine cardiac TnI in Buffer A and incubated at 4° C. overnight. Monoclonal antibody (mAb) TnI-1 was added, at a predetermined concentration that produces sub-maximal binding for the immobilized bovine cardiac TnI, to serial dilutions of biologically or chemically synthesized HcTnI-C27 and HcTnI-C27-H peptides. The effects of the peptides on competing with intact cardiac TnI for mAb TnI-1 were measured via HRP-anti-mouse IgG secondary antibody using standard ELISA procedure as described above.

[4] = test system: skinned mouse EDL muscle fibers; assay: Force-pCa contractility of skinned mouse EDL muscle fibers; type: biochemical; settings: 20 μM peptide, sarcomere length 2.7 μm
Excerpt: Extensor digitorum longus (EDL) muscles were obtained from adult C57B/L6 mice immediately after euthanasia to prepare chemically permeabilized muscle preparations as described in J. Ochala et al., The FASEB Journal 25(6) (2011) 1903-1913; and S. M. Roche et al., Journal of Visualized Experiments 100 (2015). Briefly, whole EDL muscles were excised from mice and longitudinally dissected along fibers in a calcium free relaxing buffer. The muscle strips dissected were washed with the relaxing buffer and stored in a 35 mm dish at −20° C. in 50% glycerol relaxing-skinning solution to remove cellular membranes and the endogenous calcium handling system for use in the measurements of calcium sensitivity and force-pCa relationship.
For contractility studies, the storage dish was placed on a thermal-controlled metal stage at 0° C. under a dissection scope. Cryosectioned cardiac muscle strips selected with cardiomyocytes clearly organized along the long axis and EDL muscle fibers were mounted between two aluminum T-clips and transferred to an 8-chamber thermo-controlled stage (802D, Aurora Scientific) on an inverted microscope in relaxation buffer at 6-8° C. Seen through a 20× lens, the muscle preparation was connected to a force transducer (403A, Aurora Scientific) and a length controller (322-C, Aurora Scientific). The buffer was then switched to a skinning solution (relaxation buffer containing 1% Triton X-100) for 20 min to further permeabilize the muscle strips. After a wash with relaxation buffer, the permeabilized muscle strip was placed in pCa 9.0 buffer made by mixing the relaxing buffer (pCa 10.0) with an activation buffer (BES 40 mM, EGTA 10 mM, MgCl2 6.64 mM, ATP 6.23 mM, DTT, 1 mM, CaCl2 10 mM, creatine phosphate 33 mM, creatine kinase 200 U/mL, K-propionate 2.09 mM, pH 7.0, plus protease inhibitor cocktail, pCa 4.0) and the sarcomere length was measured through a digital camera attached to the microscope and adjusted to resting sarcomere length of 2.7 μm for EDL muscle fibers or 2.0 μm and 2.3 μm for cardiac muscle fibers. […]

[5] = test system: skinned rat ventricular papillary muscle; assay: Force-pCa contractility of skinned rat ventricular papillary muscle sections; type: biochemical; settings: 20 μM peptide
Method: (§1) Permeabilized rat and mouse left ventricular papillary muscle preparations were prepared using a skinned cryosection method. Papillary muscles were dissected with a portion of ventricular free wall in one end and valve tendon in the other end. The isolated papillary muscle was pinned down on a cork at the two ends using 30 gauge needles. A small drop of optimal cutting temperature (O.C.T.) compound was used to fill the space between the muscle tissue and the surface of the cork before flash freezing by quickly submerging in liquid nitrogen. The frozen papillary muscle was sectioned longitudinally at a thickness of 35 μm using a cryostat and collected on a glass slide. Four stacked razor blades were used to cut the muscle sections longitudinally into 140-150 μm wide strips. The muscle strips were washed in a relaxing buffer (BES 40 mM, EGTA 10 mM, MgCl2 6.86 mM, ATP 5.96 mM, DTT 1 mM, creatine phosphate 33 mM, creatine kinase 200 U/mL, K-propionate 3.28 mM, pH 7.0, plus protease inhibitor cocktail) and then gently transferred into myofibril relaxation buffer containing 50% glycerol in a 35 mm culture dish and stored at −20° C. for later use in force-pCa studies.
For contractility studies, the storage dish was placed on a thermal-controlled metal stage at 0° C. under a dissection scope. Cryosectioned cardiac muscle strips selected with cardiomyocytes clearly organized along the long axis and EDL muscle fibers were mounted between two aluminum T-clips and transferred to an 8-chamber thermo-controlled stage (802D, Aurora Scientific) on an inverted microscope in relaxation buffer at 6-8° C. Seen through a 20× lens, the muscle preparation was connected to a force transducer (403A, Aurora Scientific) and a length controller (322-C, Aurora Scientific). The buffer was then switched to a skinning solution (relaxation buffer containing 1% Triton X-100) for 20 min to further permeabilize the muscle strips. After a wash with relaxation buffer, the permeabilized muscle strip was placed in pCa 9.0 buffer made by mixing the relaxing buffer (pCa 10.0) with an activation buffer (BES 40 mM, EGTA 10 mM, MgCl2 6.64 mM, ATP 6.23 mM, DTT, 1 mM, CaCl2 10 mM, creatine phosphate 33 mM, creatine kinase 200 U/mL, K-propionate 2.09 mM, pH 7.0, plus protease inhibitor cocktail, pCa 4.0) and the sarcomere length was measured through a digital camera attached to the microscope and adjusted to resting sarcomere length of 2.7 μm for EDL muscle fibers or 2.0 μm and 2.3 μm for cardiac muscle fibers. Calcium activated force was examined at pCa 6.5, 6.3, 6.0, 5.8, 5.5, 5.0, and 4.5 at 15° C. using calcium-EGTA buffer sets made using a formula described in S. M. Roche et al., Journal of Visualized Experiments 100 (2015). HcTnI-C27 peptide was then added at 20 μM and the force-pCa measurements were repeated. The force-pCa curves were plotted and fitted using Hill exponential equation for data analysis, see S. M. Roche et al., Journal of Visualized Experiments 100 (2015).

[6] = test system: skinned mouse ventricular papillary muscle; assay: Force-pCa contractility of skinned mouse ventricular papillary muscle; type: biochemical; settings: 20 μM peptide
Method: as §1
For contractility studies, the storage dish was placed on a thermal-controlled metal stage at 0° C. under a dissection scope. […] After a wash with relaxation buffer, the permeabilized muscle strip was placed in pCa 9.0 buffer made by mixing the relaxing buffer (pCa 10.0) with an activation buffer (BES 40 mM, EGTA 10 mM, MgCl2 6.64 mM, ATP 6.23 mM, DTT, 1 mM, CaCl2 10 mM, creatine phosphate 33 mM, creatine kinase 200 U/mL, K-propionate 2.09 mM, pH 7.0, plus protease inhibitor cocktail, pCa 4.0) and the sarcomere length was measured through a digital camera attached to the microscope and adjusted to resting sarcomere length of 2.7 μm for EDL muscle fibers or 2.0 μm and 2.3 μm for cardiac muscle fibers. […]

mAb TnI-1 [7] = assay: ELISA titration of mAb TnI-1 against coated fusion proteins / cardiac TnI, non-denaturing; type: binding, mouse; settings: non-denaturing conditions, protein coated on microtiter plate
Method: The ELISA procedure used in the present study for epitope structure and protein binding studies was performed as described in B. J. Biesiadecki et al., Journal of Biomedicine and Biotechnology, (2011) 1-8. Briefly, 96-well microtiter plates were coated with SUMO-HcTnI-C27 fusion protein, SUMO-HcTnI-C27-H fusion protein, purified bovine cardiac TnI, or R192H mutant mouse cardiac TnI (2 μg/mL in Buffer A containing 0.1 M KC1, 3 mM MgCl2, 10 mM PIPES, pH 7.0, 100 microliters/well) at 4° C. overnight. The plates were washed with Buffer T (0.05% Tween-20 in Buffer A) for 10 minutes and tapped dry. The wells were blocked using Buffer B (1% BSA in Buffer T) at room temperature for one hour. After washing again with Buffer T, serial dilutions of primary mAb against the coated protein were added in triplicates in Buffer D (dilution buffer, 0.1% BSA in Buffer T) and the plate was incubated at room temperature for two hours. After Buffer T washes, horseradish peroxidase (HRP)-conjugated anti-mouse immunoglobulin secondary antibody was added to incubate at room temperature for one hour. After final washes, H2O2-2,2′-azinobis-(3-ethylbenzthiazolinesulfonic acid) substrate solution was added for colorimetric development at room temperature and the plate was read using an automated microplate reader at 420 nm at 5 minute intervals for 30 minutes.
The ELISA experiments were done in triplicate wells. […]

[8] = sarcomere lengths 2.0 μm and 2.3 μm

Row | competition with intact bovine cardiac TnI for binding to immobilized tropomyosin [2] | Substance | reactivity to mAb TnI-1 in Western blot (mAb TnI-1 [1]) | competition with intact cardiac TnI for binding of mAb TnI-1, synthetic versus biologically made peptide (mAb TnI-1 [3]) | cooperativity (n) of force-pCa curve [4] | maximum force production [4] | myofilament Ca2+ sensitivity [4] | pCa50 and cooperativity ([5]; sarcomere length 2.0 μm) | Ca2+-sensitization effect of increasing sarcomere length ([5]; sarcomere length 2.0 μm to 2.3 μm) | cooperativity ([5]; sarcomere length 2.3 μm) | pCa50 ([5]; sarcomere length 2.3 μm) | maximum force production [5, 8] | cooperativity ([6]; sarcomere length 2.0 μm, activated state) | Ca2+ sensitivity (force-pCa curves) [6, 8] | maximum force production [6, 8] | binding of mAb TnI-1 in ELISA titration (mAb TnI-1 [7])
1 | diminished | ENREVGDWHKNIDALSGMEGRKKKFES (C-terminal portion of human cardiac troponin I with H substitution for R at position 9) [HcTnI-C27-H, R192H mutant of the C-terminal 27 amino acid peptide of human cardiac TnI, reference compound] | remains non-reactive to mAb TnI-1 | drastically lost the binding affinity for mAb TnI-1 |  |  |  |  |  |  |  |  |  |  |  | 
2 | dose-dependent competition | ENREVGDWRKNIDALSGMEGRKKKFES (C-terminal portion of human cardiac troponin I) [HcTnI-C27, the C-terminal 27 amino acid peptide of human cardiac TnI] | remains reactive to mAb TnI-1 | nearly identical effectiveness | significantly decreased cooperativity | not affected | myofilament Ca^2+-desensitization effect predominantly in the activated state | small effect on lowering pCa50 and cooperativity | diminished the Ca^2+-sensitization effect of increasing sarcomere length from 2.0 μm to 2.3 μm | trend of decreasing cooperativity | statistically significant right-shift of pCa50 | not affected | significantly lowered cooperativity | right-shifts of the force-pCa curves | not significantly affected | 
3 |  | Tx3-SUMO-HcTnI-C27-H: HcTnI-C27-H (R192H mutant) expressed as Tx3-SUMO fusion protein (ENREVGDWHKNIDALSGMEGRKKKFES; also: expressed as Tx3-SUMO fusion protein) [reference compound] | lost binding to mAb TnI-1 |  |  |  |  |  |  |  |  |  |  |  |  | clearly detectable but significantly decreased binding to mAb TnI-1
4 |  | Tx3-SUMO-HcTnI-C27: HcTnI-C27 expressed as fusion protein with Tx3 metal-binding tag and SUMO substrate domain (ENREVGDWRKNIDALSGMEGRKKKFES; also: expressed as Tx3-SUMO fusion protein) | reactive to mAbTnI-1 |  |  |  |  |  |  |  |  |  |  |  |  | saturable binding of mAb TnI-1
